We go through 1 compound from patent US5482931A, “Stabilized pharmaceutical peptide compositions” (Ferring AB, priority 1993, dated 1996).

The nature of series [1]: Adsorption of 125I-marked desmopressin to tubes of polystyrene, polypropene and glass. Type of series: physicochemical. The following applies: 24 h, ambient temperature. The protocol: Sterile aqueou solutions of desmopressin marked with ^125 I (appr. 10,000 CPM/ml) containing benzalkonium chloride+saline, chlorobutanol+saline, or saline only, were all incubated in tubes of polystyrene, polypropene and glass for 24 h at ambient temperature.

For series [2] the following is noted: aqueous solution of desmopressin; cited from earlier work.

A value given as a limit tells only on which side of the number the result lay.

Take `NC(=O)CC[C@@H]1NC(=O)[C@H](Cc2ccccc2)NC(=O)[C@H](Cc2ccc(O)cc2)NC(=O)CCSSC[C@@H](C(=O)N2CCC[C@H]2C(=O)N[C@H](CCCN=C(N)N)C(=O)NCC(N)=O)NC(=O)[C@H](CC(N)=O)NC1=O` [desmopressin, 1-deamino-8-D-arginine vasopressin]: the “amount of desmopressin recovered from the plastic tubes” value in series [1] (preservative-free solution (saline only), plastic tubes) is recorded as “about half”. Besides, the “adsorption of desmopressin to tubes” value in series [1] (solution containing benzalkonium chloride + saline) and in series [1] (solution containing chlorobutanol + saline) was “insignificant adsorption” in each case. In addition, the “storage temperature required for the aqueous solution” value in series [2] was ≤ 8 °C.
